Residues, ends and D or L forms follow the SMILES beside them. *: point of attachment. Palmitoyl = CCCCCCCCCCCCCCCC(=O)*
Assays:
[1] = Brain uptake study in SD rat
Method: SD rats (180-200 g) were anesthetized with an intraperitoneal injection of ketamine (60 mg/kg) and xylazine (6 mg/kg) and received a minor surgery of cannulation with a polythene tube (0.4 mm i.d., 0.8 mm o.d., Harvard Apparatus, Holliston, Mass., USA) in the left jugular vein. The rats received an overnight recovery with free access to food and water. […] For the pharmacokinetic study, after the drug administration, blood samples were collected from the catheter at appropriate time intervals (2, 5, 10, 15, 20, 30, 45, 60, and 90 min). After each collection, 0.2 mL of saline containing 25 IU heparin was injected to compensate for the blood loss. Plasma was collected after centrifugation at 8000 rcf for 3.5 min and stored at −80° C. until analysis. For brain uptake study, at 20 min, the rat was anesthetized and perfused by 500 mL saline, and the whole brain was collected. The brain was wiped by tissue paper to remove excess water, meninges and blood vessels followed by storage at −80° C. until analysis.
To prepare brain homogenate, the whole brain of each rat was minced. Saline (2 mL/g brain) was added followed by ultrasonic probe homogenization on ice. For analysis of P3V8, aliquot of brain homogenate (100 μL) was mixed with 200 μL acetonitrile. The mixture was vortexed for 1 min and followed by centrifugation at 13000 rcf for 10 min to collect the supernatant. […]

[2] = tested on: EGFPCAG78 RNA-expressing HEK293 cells; assay type: cell-based
Method: HEK293 cells were cultured at 37° C. with 5% CO2 in DMEM supplemented with 10% FBS and 1% penicillin-streptomycin. Primary rat cortical neurons were isolated and cultured as previously described^37. Transient transfection of HEK293 cells was performed using Lipofectamine 2000 (Life Technologies). P3V8 were delivered to HEK293 cells using the DeliverX (DX) Peptide Transfection Kit (Affymetrix) 4 hr after DNA transfection. At least two batches of independently synthesized peptides were used in the experiments.
HEK 293 cells were seeded on a 24-well plate at a density of 0.5×10^5, and pEGFPCAG78 DNA construct was used to transfect the cells. For P3V8 treatment, different concentrations of P3V8 as indicated in the figure were transfected by DeliverX transfectant 4 hr after DNA transfection. […] Seventy-two hours after treatment, LDH enzyme activity in the cell culture medium was measured as described before. Experimental groups were normalized to the untransfected control. After normalization, data were analyzed using the dose response-inhibition curve (nonlinear regression-variable slope) to determine the IC50 value (Prism6 software, GraphPad Software, Inc.). Each experiment was repeated at least 3 times.

HEK293 cells = experiment: Cellular uptake studies in HEK293 cells (LC/MS); assay type: in vitro ADME; conditions: 3 hr; for cellular uptake: 100 nM peptide
Method: HEK293 cells were seeded on a 6-well plate at a density of 6×10^5 and cultured overnight at 37° C. with 5% CO2 in DMEM supplemented with 10% FBS and 1% penicillin-streptomycin. Cells were then treated with 100, 500 or 1000 nM of respective peptide at 37° C. for 3 hr. After treatment, the cells were washed with ice-cold PBS and then lysed by 2% SDS solution. Aliquot (100 μl) of the cell lysate was added with 200 μl acetonitrile and centrifuged at 13000 rcf for 10 min to precipitate the proteins. The collected supernatant was subjected to LC/MS analysis. The protein concentration of the cell lysate was measured using a bicinchoninic acid protein assay kit following Sigma's protocol.

pre-45s rRNA = experiment: Real-time PCR of pre-45s rRNA level in EGFPCAG78 RNA-expressing HEK293 cells; assay type: cell-based, human; conditions: with DeliverX
Method: It was next investigated whether P3V8 could also mitigate expanded CAG RNA-induced toxicity in mammalian cells. […] To compare the inhibitory activity of P3WT and P3V8, the peptide transfection reagent DeliverX (DX) was used to deliver P3WT and P3V8 to EGFPCAG78 RNA-expressing HEK293 cells. […] To confirm that P3V8 inhibited expanded CAG RNA-mediated nucleolar stress, the levels of pre-45s rRNA were measured in EGFPCAG78 RNA-expressing cells with or without treatment of P3V8 (FIG. 3C). Overexpression of the expanded CAG RNA reduced the level of pre-45s rRNA to approximately 40% of the untransfected control.
RNA was extracted from cells or ten 12 day-old adult fly heads by Trizol reagent (Life Technologies), and 1 μg of purified RNA was then used for reverse-transcription using the ImPromII™ Reverse Transcription System (Promega). Random hexamer (Roche) was used as primers in reverse transcription. Taqman gene expression assays were performed on an ABI 7500 Real-time PCR system and data were analyzed as previously described^13. The following probes were used: pre-45s rRNA (Assay ID: AILJIZM), pre-rRNA (Assay ID: AIMSG5U), Drosophila GAPDH (Assay ID: Dm01841186) and human actin (Assay ID: Hs99999903_m1). Each experiment was repeated at least 3 times.

| Molecule | tissue level at time molar at 20 min ([1]; Sprague-Dawley, rat, in vivo, iv, 3 umol/kg) [nmol/g] | IC50 ([2]; 72 hr, read-out: IC50 (inhibition of cell death, LDH)) [nM] | cellular uptake (HEK293 cells) | cellular concentration compared to P3V8 (HEK293 cells; 500 nM and 1 μM treatment) | brain concentration ([1]; 20 min after intravenous administration, 3 μmol/kg) | pre-45s rRNA level (pre-45s rRNA) | effect on expanded CAG RNA-induced cytotoxicity [2] | effect on expanded CAG RNA-induced cell death ([2]; peptide alone, without DeliverX) |
| --- | --- | --- | --- | --- | --- | --- | --- | --- |
| CCCCCCCCCCCCCCCC(=O)N[C@@H](CC(=O)O)C(=O)NCC(=O)N[C@@H](CCCCN)C(=O)N[C@@H](CO)C(=O)N[C@@H](CCCCN)C(=O)NCC(=O)N[C@H](C(=O)N[C@@H](C)C(=O)N[C@@H](Cc1ccc(O)cc1)C(=O)N[C@H](C(=O)N[C@@H](CCC(=O)O)C(=O)N[C@@H](Cc1ccccc1)C(=O)N[C@@H](CCCCN)C(N)=O)[C@@H](C)CC)[C@@H](C)CC [L1P3V8] (Palmitoyl-DGKSKGIAYIEFK-NH2) | 0.013 | ~100 | low cellular concentration | higher cellular concentration | – | – | – | – |
| Ac-DGKSKGIAYIEFK-NH2 [P3V8] | – | – | no uptake | – | no and not detected | dose-dependent restoration | effectively alleviate the cytotoxicity | did not exert any cellular effect |

Reference: patent US10570177B2, “P3 peptidylic inhibitors for treating CAG-repeat RNA toxicity in polyglutamine diseases” (The Chinese University of Hong Kong, priority 2017, dated 2020)
